Data taken from patent US20260132165A1, “MODIFIED NUCLEOSIDE ANALOGUE AND USE THEREOF, AND NUCLEOSIDE ANALOGUE-CONTAINING DOUBLE-STRANDED OLIGONUCLEOTIDE AND USE THEREOF” (RIGERNA THERAPEUTICS (BEIJING) CO., LTD., priority 2023, published 2026).
Strand notation (5' to 3'): a small letter for the sugar, then the base; units joined by * are phosphorothioate-linked, units joined directly phosphodiester-linked; [ ] holds rarer units or linkages, { } end groups; capitals alone tell only the bases. [Uhd] = commercial lipid-conjugated uridine analogue Uhd (C16), from Hongene, reference; {VP} = (thio)vinylphosphonate on the antisense 5' nucleotide, as listed; e = 2'-O-(2-methoxyethyl) (MOE); m = 2'-O-methyl; f = 2'-fluoro

How the values were obtained:
[1] = tested on: target gene SOD1; experiment: Test Example 11: inhibitory activity at different administration doses on SOD1 in mouse adipose and heart tissues; format: in vivo, C57BL/6j mice; settings: D14; for 0.5 mg/kg % Mean value of inhibition rate: tail vein injection 0.5 mg/kg; for 2 mg/kg % Mean value of inhibition rate: tail vein injection 2 mg/kg; for 5 mg/kg % Mean value of inhibition rate: tail vein injection 5 mg/kg; for dose dependency of inhibitory activity: 0.5, 2, 5 mg/kg tail vein
Protocol: (§1) RNA extraction: the above tissue samples were taken out from the RNAlater, and smashed for 60 s in Tissuelyser type II full-automatic tissue homogenizer, and total RNAs of various tissue samples were extracted using the full-automatic nucleic acid extraction instrument and the nucleic acid extraction kit from Zhejiang Hanwei Science and Technology Co. Ltd. according to methods described in instructions.
(§2) Reverse transcription reaction: 1 μg of the extracted total RNAs of the tissue samples were taken, and configured into 20 μL of reverse transcription system according to a method described in kit instructions by using a reverse transcription kit (Reverse Transcription System, A3500) from Promega Corporation and selecting Oligo (dT)15 reverse transcription primers, and the reverse transcription reaction was completed. After the reaction was ended, 80 μL of RNase-Free water was added into the reverse transcription system to provide cDNA solution for Real-time PCR detection.
(§3) Real-time PCR detection: 20 μL of Real-time PCR reaction system per PCR detection well was configured according to a method described in kit instructions using SYBR™ Select Master Mix (Catalog number: 4472908) reagent from ABI company. Each detection system contained 5 μL of cDNA template obtained from the above reverse transcription reaction, 10 μL of SYBR™ Select Master Mix, 0.5 μL of 10 μM upstream primers, 0.5 μL of 10 μM downstream primers, and 4 μL of RNase-Free H2O. The configured reaction system was subjected to Real-time PCR amplification on ABI StepOnePlus PCR instrument by a three-step method, wherein an amplification procedure was pre-denaturation at 95° C. for 10 min, then denaturation at 95° C. for 30 s, annealing at 60° C. for 30 s, and extension at 72° C. for 30 s; and processes of denaturation, annealing, and extension were repeated for 40 cycles. Gene expression differences were calculated by the ΔΔCt method after completion of the procedure.
(§4) In the real-time fluorescence quantitative PCR method, relative quantitative calculation of remaining expression level and inhibition rate of gene mRNA of interest in various test groups was performed by the ΔΔCt method, and the calculation method is as follows:
(§5) The present test example evaluated, by an evaluation method for inhibitory activity on a target gene in mice, the inhibitory activity of siRNA sequence RZ899090 with the sense strand with the NM073 conjugation at Position 4 at different administration doses on the target gene SOD1 of interest in mice.
6-8 Week-old C57BL/6j mice were randomly grouped by body weight, 5 per group, 4 groups in total. Mice were administered with the above siRNA conjugate by tail vein injection, wherein mice in one group were administered with the above siRNA conjugate at an administration dose of 5 mg/kg, mice in one group were administered with the above siRNA conjugate at an administration dose of 2 mg/kg, and one group was administered with the above siRNA conjugate at an administration dose of 0.5 mg/kg, all administration volumes being 150 μL. The remaining group acted as PBS control group and was administered with the same volume of siRNA conjugate-free PBS solution. The day of administration was recorded as D0, and the mice were sacrificed on D14 after administration. Paragonadal fat and heart tissues were respectively taken and stored in the RNAlater. RNA extraction, reverse transcription, and real-time fluorescence quantitative detection were performed on various tissues according to the above method, and gene expression differences were calculated by the above ΔΔCt method.

[2] = tested on: target gene SOD1; experiment: Test Example 6: inhibitory activity of NM073, NM074 conjugated siRNA sequences on SOD1 by intrathecal administration to rats; format: in vivo, SD rats; settings: D28; for Cerebellum % Mean value of inhibition rate / Cortex % Mean value of inhibition rate / Hippocampus % Mean value of inhibition rate / Cervical segment % Mean value of inhibition rate / Lumbar segment % Mean value of inhibition rate / Thoracic segment % Mean value of inhibition rate: intrathecal, 900 μg per rat; for Cortex % Mean value of inhibition rate: cerebral cortex; for level of inhibition on the target gene compared with the Uhd control conjugate (RZ899093): intrathecal 900 μg per rat; for Cervical segment % Mean value of inhibition rate: spinal cord cervical segment; for Lumbar segment % Mean value of inhibition rate: spinal cord lumbar segment; for Thoracic segment % Mean value of inhibition rate: spinal cord thoracic segment
Protocol: 6-8 Week-old SD rats were randomly grouped by body weight. Rats in each group were administered with siRNA by intrathecal administration, with an administration dose of 900 μg per rat. Injection was administered from rat spinal cord L5-L6, with an administration volume of 40 μL. Needle was retained for 2 min after completion of injection, and then slowly withdrawn. PBS control group was administered with the same volume of siRNA conjugate-free PBS solution. The day of administration was recorded as 0 day (D0), and the rats were sacrificed at observation point after administration. Different segments of spinal cord and different regions of brain were respectively taken and stored in the RNAlater.
as §1, §2, §3, §4
The present test example evaluated, by an evaluation method for inhibitory activity on a target gene by intrathecal administration to rats, the inhibitory activity of siRNA sequence RZ899090 with the NM073 conjugation at Position 4, siRNA sequence RZ899091 with the NM074 conjugation at Position 4 and siRNA control sequence RZ899093 with the Uhd conjugation on the target gene SOD1 of interest in spinal cord and brain of rats. The above conjugation vectors were different in that NM073 was C18 aliphatic chain and NM074 was C20 aliphatic chain.
6-8 Week-old SD rats were randomly grouped by body weight, 5 per group, 4 groups in total. Rats in each group were dosed with the above siRNA conjugates by intrathecal administration, with an administration dose of 900 μg per rat, and an administration volume of 40 μL. PBS control group was administered with the same volume of siRNA conjugate-free PBS solution. The day of administration was recorded as D0, and the rats were sacrificed on D28 after administration. […]

[3] = tested on: target gene SOD1; experiment: Test Example 12: inhibitory activity of lipid conjugated siRNA sequence on SOD1 in mouse eyes (intravitreal administration); format: in vivo, C57BL/6J mice; settings: D14
Protocol: as §1, §2, §3, §4
as §5, with “RZ899091” for “RZ899090”, “NM074” for “NM073”, “and siRNA reference sequence RX899121 without vector conjugation” for “at different administration doses”
6-8 Week-old C57BL/6J mice were randomly grouped by body weight, 5 in each group and 3 groups in total. Mice in each group were administered with the above siRNA conjugate by intravitreal administration to right eyes of the mice, with an administration dose of 7.5 μg per mouse, and an administration volume of 2 μL. PBS control group was administered with the same volume of siRNA conjugate-free PBS solution. The day of administration was recorded as D0, and the mice were sacrificed at D14 after administration. Administration-side ocular retina, choroid, cornea, sclera and other tissues were respectively taken and stored in the RNAlater. RNA extraction, reverse transcription, and real-time fluorescence quantitative detection were performed on various tissues according to the above method, and gene expression differences were calculated by the above ΔΔCt method.

[4] = mouse adipose tissues (paragonadal fat)

| Substance | Cerebellum % Mean value of inhibition rate [2] [%] | Cortex % Mean value of inhibition rate [2] [%] | Hippocampus % Mean value of inhibition rate [2] [%] | level of inhibition on the target gene compared with the Uhd control conjugate (RZ899093) [2] | Cervical segment % Mean value of inhibition rate [2] [%] | Lumbar segment % Mean value of inhibition rate [2] [%] | Thoracic segment % Mean value of inhibition rate [2] [%] | further results |
| --- | --- | --- | --- | --- | --- | --- | --- | --- |
| RZ899090: siRNA sequence with the sense strand with the NM073 (C18) conjugation at Position 4; SEQ ID NO: 15 / 23 (sense UUUNAAUCCUCACUCUAAA; antisense UUUAGAGUGAGGAUUAAAAUG; NM073 (C18) conjugate at sense position 4; modified_base 1..2 OTHER; 2'-methoxy and 5'-thiophosphate modified nucleotides; modified_base 3 OTHER; 2'-methoxy modified nucleotide; modified_base 4 OTHER; n is the nucleotide analog NM073 as described in the disclosure.; modified_base 5..6 OTHER; 2'-methoxy modified nucleotides; modified_base 7..10 OTHER; 2'-fluoro modified nucleotides; modified_base 11..19 OTHER; modified_base 1 OTHER; 2'-methoxy and 5'-thiovinylphosphonate modified nucleotide; modified_base 2 OTHER; 2'-fluoro and 5'-thiophosphate modified nucleotide; modified_base 3..5 OTHER; …) | 56.97 | −15.00 | 35.35 | comparable level of inhibition in the spinal cord segment and cerebellum | 69.98 | 93.93 | 94.17 | 0.5 mg/kg % Mean value of inhibition rate [1, 4]: 45.65%; 2 mg/kg % Mean value of inhibition rate [1, 4]: 70.90%; 5 mg/kg % Mean value of inhibition rate [1, 4]: 83.09%; dose dependency of inhibitory activity ([1]; mouse adipose tissues): distinct dose dependency; dose dependency of inhibitory activity ([1]; mouse heart tissues): distinct dose dependency; 0.5 mg/kg % Mean value of inhibition rate ([1]; mouse heart tissues): 30.45%; 2 mg/kg % Mean value of inhibition rate ([1]; mouse heart tissues): 62.38%; 5 mg/kg % Mean value of inhibition rate ([1]; mouse heart tissues): 79.04% |
| RZ899093: siRNA reference sequence with the sense strand with the Uhd (C16) conjugation at Position 4; SEQ ID NO: 13 / 23 (sense mU*mU*mU[Uhd]mAmAfUfCfCfUmCmAmCmUmCmUmAmAmA; antisense {VP}-mU*fU*mUmAmGfAmGmUmGmAmGfGmAfUeUfAmAmAmA*mU*mG) [reference compound] | 55.89 | 36.29 | 52.87 | – | 69.68 | 95.31 | 94.90 | – |
| RZ899091: siRNA sequence with the sense strand with the NM074 (C20) conjugation at Position 4; SEQ ID NO: 16 / 23 (sense UUUNAAUCCUCACUCUAAA; antisense UUUAGAGUGAGGAUUAAAAUG; NM074 (C20) conjugate at sense position 4; modified_base 1..2 OTHER; 2'-methoxy and 5'-thiophosphate modified nucleotides; modified_base 3 OTHER; 2'-methoxy modified nucleotide; modified_base 4 OTHER; n is the synthetic nucleotide analog NM074 as described in the disclosure.; modified_base 5..6 OTHER; 2'-methoxy modified nucleotides; modified_base 7..10 OTHER; 2'-fluoro modified nucleotides; modified_base 11..19 OTHER; 2'-methoxy modified ; modified_base 1 OTHER; 2'-methoxy and 5'-thiovinylphosphonate modified nucleotide; modified_base 2 OTHER; 2'-fluoro and 5'-thiophosphate modified …) | 73.86 | 28.78 | 70.69 | superior level of inhibition on the target gene in the spinal cord segment, cerebellum, and hippocampus | 92.15 | 95.17 | 98.15 | Choroid % Mean value of inhibition rate ([3]; choroid, intravitreal, right eye, 7.5 μg per mouse): 33.54%; Cornea and sclera % Mean value of inhibition rate ([3]; cornea and sclera, intravitreal, right eye, 7.5 μg per mouse): −2.05%; Kidney % Mean value of inhibition rate ([3]; kidney, intravitreal, right eye, 7.5 μg per mouse): 6.51%; Liver % Mean value of inhibition rate ([3]; liver, intravitreal, right eye, 7.5 μg per mouse): −2.05%; inhibitory activity compared with the reference sequence RX899121 without vector ([3]; mouse retina and choroid, intravitreal 7.5 μg per mouse): superior inhibitory activity; Retina % Mean value of inhibition rate ([3]; retina, intravitreal, right eye, 7.5 μg per mouse): 54.98% |
